These results are taken from paper PMC3145320 (Bioorganic & medicinal chemistry, 2011).

Experiment [1] deals with T1, μ-opiate receptor (Homo sapiens, UniProt P35372). The experiment can be described thus: biochemical. The conditions noted are these: for Kb: Ke μ-Antagonism.
Experiment [2] deals with κ-opioid receptor (Homo sapiens, UniProt P41145). Description: [35S]GTP-γ-S binding, κ-antagonism. The format is biochemical. The conditions noted are these: n=3; for Kb: Ke κ-Antagonism.
Experiment [3] deals with T1, μ-opiate receptor. It is filed as binding. The following applies: read-out: Ki μ.
Experiment [4] concerns the target κ-opiate receptor (Homo sapiens, UniProt P41145). Description: [3H] opioid receptor binding, κ. The conditions noted are these: read-out: Ki κ; CHO cells stably transfected, expressing κ-opiate receptor; n=3.

T1 sequence (P35372 whole entry): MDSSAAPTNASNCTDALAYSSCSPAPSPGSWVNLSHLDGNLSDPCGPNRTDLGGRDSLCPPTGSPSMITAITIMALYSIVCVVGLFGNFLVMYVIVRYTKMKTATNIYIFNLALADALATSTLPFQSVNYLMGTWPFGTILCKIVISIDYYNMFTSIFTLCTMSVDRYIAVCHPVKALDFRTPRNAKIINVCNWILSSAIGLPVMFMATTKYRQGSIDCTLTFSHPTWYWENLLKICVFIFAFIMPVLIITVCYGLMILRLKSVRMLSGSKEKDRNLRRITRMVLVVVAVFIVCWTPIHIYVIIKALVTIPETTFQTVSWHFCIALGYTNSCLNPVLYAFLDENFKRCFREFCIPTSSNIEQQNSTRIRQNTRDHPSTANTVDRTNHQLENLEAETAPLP
Sequence of κ-opioid receptor (P41145 whole entry): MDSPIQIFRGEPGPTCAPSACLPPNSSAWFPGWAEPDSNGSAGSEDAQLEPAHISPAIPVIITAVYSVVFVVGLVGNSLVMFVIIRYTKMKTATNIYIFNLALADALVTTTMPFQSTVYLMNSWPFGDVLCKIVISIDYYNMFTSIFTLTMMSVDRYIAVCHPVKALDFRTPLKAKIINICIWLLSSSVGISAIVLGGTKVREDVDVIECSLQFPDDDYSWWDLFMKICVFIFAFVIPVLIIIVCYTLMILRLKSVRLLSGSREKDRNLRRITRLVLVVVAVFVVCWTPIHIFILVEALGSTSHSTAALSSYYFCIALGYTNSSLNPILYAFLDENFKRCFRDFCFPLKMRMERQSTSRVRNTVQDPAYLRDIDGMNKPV
Sequence of κ-opiate receptor (P41145 whole entry): as above

Consider `Oc1cccc2c1O[C@@H]1CC[C@@H]3C[C@]21CCN3CCc1ccccc1` (racemic) [rac 5, rac-(4R,6aR,11bR)-2,3,4,5,6,6a-hexahydro-3-phenethyl-1H-4,11b-methanobenzofuro[3,2-d]azocin-8-ol], for which the Kb was 274 ± 49 nM in experiment [1] and 163 ± 29 nM in experiment [2].
`Oc1ccc2c(c1)[C@]13CCN(CCc4ccccc4)[C@H](CC[C@H]1O2)C3` (racemic) [rac 10, rac-(4R,6aR,11bR)-2,3,4,5,6,6a-hexahydro-3-phenethyl-1H-4,11b-methanobenzofuro[3,2-d]azocin-10-ol]: in experiment [2], the Kb turned out to be 46 ± 9 nM.
For `Oc1cccc2c1O[C@H]1CC[C@@H]3C[C@]21CCN3CCc1ccccc1` (stereo in doubt) [Compound 19b, (4R,6aS,11bR)-2,3,4,5,6,6a-Hexahydro-3-phenethyl-1H-4,11b-methanobenzofuro[3,2-d]azocine-8-ol], the figures for the antagonist equilibrium constant (Kb) in experiment [1] and in experiment [2] were 31 ± 6 nM and 22 ± 6 nM, respectively.
For `Oc1ccc2c(c1)[C@]13CCN(CCc4ccccc4)[C@H](CC[C@@H]1O2)C3` [Compound 16a, (4R,6aS,11bR)-2,3,4,5,6,6a-Hexahydro-3-phenethyl-1H-4,11b-methanobenzofuro[3,2-d]azocine-10-ol], in that order: 47 ± 9 nM and 100 ± 3 nM.
On the same counts, the results for `Oc1ccc2c(c1)[C@@]13CCN(CCc4ccccc4)[C@@H](CC[C@H]1O2)C3` [Compound 16b, (4S,6aR,11bS)-2,3,4,5,6,6a-Hexahydro-3-phenethyl-1H-4,11b-methanobenzofuro[3,2-d]azocine-10-ol] are 227 ± 33 nM and 103 ± 17 nM.
With “(4S,6aR,11bS)-2,3,4,5,6,6a-hexahydro-3-phenethyl-1H-4,11b-methanobenzofuro[3,2-d]azocine-8-ol [Compound 19a]”, the Ki came to 384 ± 38 nM in experiment [3] and 367 ± 19 nM in experiment [4]. The “Ke μ-Antagonism” value in experiment [1] was 328 ± 67 nM. Moreover, the “Ke κ-Antagonism” value in experiment [2] amounted to 761 ± 191 nM.
